Source: BindingDB's records for doi:10.1016/j.bioorg.2004.06.008 (BiomolÉCules Et Cibles Cellulaires Tumorales, 2004)

Biological target: T1, Aromatase [1-48] (Homo sapiens, UniProt P11511)
T1 construct: 1-48
T1 sequence (P11511 whole entry): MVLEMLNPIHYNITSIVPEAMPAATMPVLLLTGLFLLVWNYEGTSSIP
Experiment: Biological Assay
Experimental: The inhibitory activities of the compounds toward aromatase were determined in vitro using human placental microsomes and [1,2,6,7-3H]-androstenedione.

IC50 [nM]	SMILES
200	COc1ccc2c(c1)OC(c1ccc(Cl)cc1)CC2n1ccnc1 (trans isomer) [2,4-Trans-4'-chloro-4-imidazolyl-7-methoxyflavan, 3b]
133	COc1ccc2c(c1)OC(c1ccc(C#N)cc1)CC2n1ccnc1 (stereo not drawn) [2,4-Trans-4'-cyano-4-imidazolyl-7-methoxyflavan, 3c]

The remaining lines, values behind:

SMILES	IC50 [nM]
COc1ccc2c(c1)OC(c1cccc(O)c1)CC2n1ccnc1 (stereo not drawn) [2,4-Trans-3'-hydroxy-4-imidazolyl-7-methoxyflavan, 3a]	130
COc1ccc2c(c1)OC(c1ccc(O)cc1)CC2n1ccnc1 (stereo not drawn) [2,4-Trans-4'-hydroxy-4-imidazolyl-7-methoxyflavan, 3d]	40
Oc1ccc(C2CC(n3ccnc3)c3ccc(O)cc3O2)cc1 (stereo not drawn) [2,4-Trans-4',7-dihydroxy-4-imidazolyl-7-methoxyflavan, 3e]	77
